# Data taken from patent US10781184B2, “Substituted benzazinones as antibacterial compounds” (GlaxoSmithKline Intellectual Property Development Limited, priority 2015, dated 2020).
# Assays:
# Assay in all cases: Minimum Inhibitory Concentration Assay (broth microdilution, CLSI)
# Format in all cases: cell-based
# K. pneumoniae 1161486 = details: Klebsiella pneumoniae; strain 1161486, broth microdilution; read-out: K. pneumoniae 1161486 MIC
# Procedure: (§1) Methods for dilution Antimicrobial Susceptibility TestS for Bacteria that Grow Aerobically; Approved Standard-Ninth Edition; M7-A9, Vol. 32 No. 2, Clinical and Laboratory Standards Institute, Wayne, Pa.; January 2012.
# (§2) Performance Standards for Antimicrobial Susceptibility Testing; Twenty-Second Informational Supplement; M100-S22 Vol. 32 No. 3; Clinical and Laboratory Standards Institute, Wayne, Pa., January 2012.
# (§3) Broth microdilution was performed in accordance with the CLSI recommended procedures for aerobic bacteria [CLSI, 2012].
# (§4) Comparator compound stock solutions were prepared as recommended by CLSI [CLSI, 2012]. The stock solutions of novel GSK compounds were prepared at 512 mcg/mL by dissolving the compounds in dimethyl sulfoxide (DMSO) and diluting 1:10 with sterile water. The 512 mcg/mL stock was further serially diluted in the recommended broth media for the organisms being tested. Final DMSO concentration in test wells was less than 1%.
# (§5) Microtitre plates were prepared using the Microlab STAR™ (Hamilton Co., Reno, Nev.) to add media (50 μL) and the Microlab AT Plus system (Hamilton Co., Reno, Nev.) to serially dilute the compounds (final concentration range 0.125 to 128 mcg/mL) and to add inoculum. A positive growth control well containing medium and the test isolate was included on each microtitre plate. Ten microliters of the test medium from the positive growth control well was plated to determine the purity of each test isolate. A microtitre mirror reader (Cooke Instruments, Ltd., England) was used to assist in determining the microdilution MIC endpoints. The MIC was determined as the lowest concentration of compound that inhibited visible growth of the organism.
# E. coli 7623 = details: Escherichia coli; strain 7623, broth microdilution; read-out: E. coli 7623 MIC
# Procedure: as §1, §2, §3, §4, §5
# P. aeruginosa PA01 = details: Pseudomonas aeruginosa; strain PA01, broth microdilution; read-out: P. aeruginosa PA01 MIC
# Procedure: as §1, §2, §3, §4, §5
smiles,measurement,setting,value
"C[C@@](CCn1cnc2cc(-c3ccc(CN4CCOCC4)cc3F)c(F)cc2c1=O)(C(=O)NO)S(C)(=O)=O [Example 26, (2R)-4-(6-fluoro-7-{2-fluoro-4-[(morpholin-4-yl)methyl]phenyl}4-oxo-3,4-dihydroquinazolin-3-yl)-N-hydroxy-2-methanesulfonyl-2-methylbutanamide]",MIC,K. pneumoniae 1161486,0.5 µg/mL
same,MIC,E. coli 7623,0.125 µg/mL
same,MIC,P. aeruginosa PA01,4 µg/mL
"C[C@@](CCn1cnc2cc(-c3ccc(CCO)cc3F)c(F)cc2c1=O)(C(=O)NO)S(C)(=O)=O [Example 27, (2R)-4-{6-fluoro-7-[2-fluoro-4-(2-hydroxyethyl)phenyl]-4-oxo-3,4-dihydroquinazolin-3-yl}-N-hydroxy-2-methanesulfonyl-2-methylbutanamide]",MIC,K. pneumoniae 1161486,1 µg/mL
same,MIC,E. coli 7623,< 0.03 µg/mL
same,MIC,P. aeruginosa PA01,2 µg/mL
"C[C@@](CCn1cnc2cc(-c3ccc(CCO)cc3)c(F)cc2c1=O)(C(=O)NO)S(C)(=O)=O [Example 28, (2R)-4-(6-fluoro-7-[4-(2-hydroxyethyl)phenyl]-4-oxo-3,4-dihydroquinazolin-3-yl)-N-hydroxy-2-methanesulfonyl-2-methylbutanamide]",MIC,K. pneumoniae 1161486,0.125 µg/mL
same,MIC,E. coli 7623,< 0.03 µg/mL
same,MIC,P. aeruginosa PA01,0.5 µg/mL
"Cc1c(-c2ccc(CN3CCOCC3)cc2)ccc2c(=O)n(CC[C@](C)(C(=O)NO)S(C)(=O)=O)cnc12 [Example 29, (2R)—N-hydroxy-2-methanesulfonyl-2-methyl-4-(8-methyl-7-{4-[(morpholin-4-yl)methyl]phenyl}-4-oxo-3,4-dihydroquinazolin-3-yl)butanamide]",MIC,K. pneumoniae 1161486,0.5 µg/mL
same,MIC,E. coli 7623,0.5 µg/mL
same,MIC,P. aeruginosa PA01,4 µg/mL
"COc1ccc(-c2cc3ncn(CC[C@](C)(C(=O)NO)S(C)(=O)=O)c(=O)c3cc2F)cn1 [Example 30, (2R)-4-[6-fluoro-7-(6-methoxypyridin-3-yl)-4-oxo-3,4-dihydroquinazolin-3-yl]-N-hydroxy-2-methanesulfonyl-2-methylbutanamide]",MIC,K. pneumoniae 1161486,1 µg/mL
same,MIC,E. coli 7623,0.25 µg/mL
same,MIC,P. aeruginosa PA01,16 µg/mL
"C[C@@](CCn1cnc2cc(-c3ccccc3)c(F)cc2c1=O)(C(=O)NO)S(C)(=O)=O [Example 31, (2R)-4-(6-fluoro-4-oxo-7-phenyl-3,4-dihydroquinazolin-3-yl)-N-hydroxy-2-methanesulfonyl-2-methylbutanamide]",MIC,K. pneumoniae 1161486,0.25 µg/mL
same,MIC,E. coli 7623,0.063 µg/mL
same,MIC,P. aeruginosa PA01,2 µg/mL
"C[C@@](CCn1cnc2cc(-c3ccc4c(c3)COC4)c(F)cc2c1=O)(C(=O)NO)S(C)(=O)=O [Example 32, (2R)-4-[7-(1,3-dihydro-2-benzofuran-5-yl)-6-fluoro-4-oxo-3,4-dihydroquinazolin-3-yl]-N-hydroxy-2-methanesulfonyl-2-methylbutanamide]",MIC,K. pneumoniae 1161486,0.5 µg/mL
same,MIC,E. coli 7623,0.125 µg/mL
same,MIC,P. aeruginosa PA01,4 µg/mL
"CN(C)c1ccc(-c2cc3ncn(CC[C@](C)(C(=O)NO)S(C)(=O)=O)c(=O)c3cc2F)cn1 [Example 33, (2R)-4-{7-[6-(dimethylamino)pyridin-3-yl]-6-fluoro-4-oxo-3,4-dihydroquinazolin-3-yl}-N-hydroxy-2-methanesulfonyl-2-methylbutanamide]",MIC,K. pneumoniae 1161486,0.5 µg/mL
same,MIC,E. coli 7623,< 0.03 µg/mL
same,MIC,P. aeruginosa PA01,8 µg/mL
"CC(=O)OCCc1ccc(-c2cc3ncn(CC[C@](C)(C(=O)NO)S(C)(=O)=O)c(=O)c3cc2F)cc1 [Example 34, 2-(4-{6-fluoro-3-[(3R)-3-(hydroxycarbamoyl)-3-methanesulfonyl-3-methylpropyl]-4-oxo-3,4-dihydroquinazolin-7-yl}phenyl)ethyl acetate]",MIC,K. pneumoniae 1161486,0.25 µg/mL
same,MIC,E. coli 7623,< 0.03 µg/mL
same,MIC,P. aeruginosa PA01,4 µg/mL
"C[C@@](CCn1cnc2cc(-c3ccc(CN4CCOCC4)cc3)ccc2c1=O)(C(=O)NO)S(C)(=O)=O [Example 35, (2R)—N-hydroxy-2-methanesulfonyl-2-methyl-4-(7-{4-[(morpholin-4-yl)methyl]phenyl}-4-oxo-3,4-dihydroquinazolin-3-yl)butanamide]",MIC,K. pneumoniae 1161486,0.5 µg/mL
same,MIC,E. coli 7623,0.125 µg/mL
same,MIC,P. aeruginosa PA01,1 µg/mL
"COCCN(C)Cc1ccc(-c2ccc3c(=O)n(CC[C@](C)(C(=O)NO)S(C)(=O)=O)cnc3c2)c(F)c1 [Example 36, (2R)-4-[7-(2-fluoro-4-{[(2-methoxyethyl)(methyl)amino]methyl}phenyl)-4-oxo-3,4-dihydroquinazolin-3-yl]-N-hydroxy-2-methanesulfonyl-2-methylbutanamide]",MIC,K. pneumoniae 1161486,1 µg/mL
same,MIC,E. coli 7623,0.125 µg/mL
same,MIC,P. aeruginosa PA01,1 µg/mL
"C[C@@](CCn1cnc2cc(-c3ccc(CN4CCOCC4)cc3F)ccc2c1=O)(C(=O)NO)S(C)(=O)=O [Example 37, (2R)-4-(7-{2-fluoro-4-[(morpholin-4-yl)methyl]phenyl}-4-oxo-3,4-dihydroquinazolin-3-yl)-N-hydroxy-2-methanesulfonyl-2-methylbutanamide]",MIC,K. pneumoniae 1161486,0.5 µg/mL
same,MIC,E. coli 7623,0.063 µg/mL
same,MIC,P. aeruginosa PA01,2 µg/mL
"COCCN(C)Cc1ccc(-c2ccc3c(=O)n(CC[C@](C)(C(=O)NO)S(C)(=O)=O)cnc3c2)c(F)c1F [Example 38, (2R)-4-[7-(2,3-difluoro-4-{[(2-methoxyethyl)(methyl)amino]methyl}phenyl)-4-oxo-3,4-dihydroquinazolin-3-yl]-N-hydroxy-2-methanesulfonyl-2-methylbutanamide]",MIC,K. pneumoniae 1161486,0.5 µg/mL
same,MIC,E. coli 7623,0.125 µg/mL
same,MIC,P. aeruginosa PA01,4 µg/mL
"CN(Cc1ccc(-c2ccc3c(=O)n(CC[C@](C)(C(=O)NO)S(C)(=O)=O)cnc3c2)cc1F)C1CC1 [Example 39, (2R)-4-[7-(4-{[cyclopropyl(methyl)amino]methyl}-3-fluorophenyl)-4-oxo-3,4-dihydroquinazolin-3-yl]-N-hydroxy-2-methanesulfonyl-2-methylbutanamide]",MIC,K. pneumoniae 1161486,0.5 µg/mL
same,MIC,E. coli 7623,< 0.03 µg/mL
same,MIC,P. aeruginosa PA01,4 µg/mL
"C[C@@](CCn1cnc2cc(-c3ccc(CN4CC(F)(F)C4)cc3F)ccc2c1=O)(C(=O)NO)S(C)(=O)=O [Example 40, (2R)-4-(7-{4-[(3,3-difluoroazetidin-1-yl)methyl]-2-fluorophenyl}-4-oxo-3,4-dihydroquinazolin-3-yl)-N-hydroxy-2-methanesulfonyl-2-methylbutanamide]",MIC,K. pneumoniae 1161486,0.5 µg/mL
same,MIC,E. coli 7623,0.5 µg/mL
same,MIC,P. aeruginosa PA01,4 µg/mL
"C[C@@](CCn1cnc2cc(-c3ccc(CNC4CC4)cc3F)ccc2c1=O)(C(=O)NO)S(C)(=O)=O [Example 41, (2R)-4-(7-{4-[(cyclopropylamino)methyl]-2-fluorophenyl}-4-oxo-3,4-dihydroquinazolin-3-yl)-N-hydroxy-2-methanesulfonyl-2-methylbutanamide]",MIC,K. pneumoniae 1161486,2 µg/mL
same,MIC,E. coli 7623,0.125 µg/mL
same,MIC,P. aeruginosa PA01,2 µg/mL
"C[C@@](CCn1cnc2cc(-c3ccc(CCN4CCOCC4)cc3F)ccc2c1=O)(C(=O)NO)S(C)(=O)=O [Example 43, (2R)-4-(7-{2-fluoro-4-[2-(morpholin-4-yl)ethyl]phenyl}-4-oxo-3,4-dihydroquinazolin-3-yl)-N-hydroxy-2-methanesulfonyl-2-methylbutanamide]",MIC,K. pneumoniae 1161486,0.5 µg/mL
same,MIC,E. coli 7623,0.25 µg/mL
same,MIC,P. aeruginosa PA01,2 µg/mL
"C[C@@](CCn1cnc2cc(-c3ccc(CCO)cc3)ccc2c1=O)(C(=O)NO)S(C)(=O)=O [Example 44, (2R)—N-hydroxy-4-{7-[4-(2-hydroxyethyl)phenyl]-4-oxo-3,4-dihydroquinazolin-3-yl}-2-methanesulfonyl-2-methylbutanamide]",MIC,K. pneumoniae 1161486,1 µg/mL
same,MIC,E. coli 7623,0.125 µg/mL
same,MIC,P. aeruginosa PA01,1 µg/mL
